According to patent publication US6579882B2, “Cell adhesion-inhibiting antiinflammatory compounds” (Abbott Laboratories, priority 1998, dated 2003):

Experiments:
Format in all cases: cell-based
Conditions in all cases: 1 μM compound, primary human umbilical vein endothelial cells, compound 24 hours, then TNF 5 ng/mL 6 hours; for inhibition at 1 µM: Homo sapiens, Endothelial cell
[1] = system: ICAM-1; test: CAM ELISA: ICAM-1 expression on TNF-stimulated HUVECs
Method: (§1) Pooled primary human umbilical vein endothelial cells (HtVEC's) (Clonetics) between passages 3 and 7 were plated in 96-well plates (Costar), 100 μL/well, 5×10^4 cells/mL in Clonetics EBM/2% FBS/EGF/Bovine brain extract/gentamicin in the absence of hydrocortisone. The following day, compounds of the invention were added in 10 μL/well medium, and the plates were incubated at 37° C. 24 hours after compound addition, TNF (Gibco/BRL) in 10 μL/well medium was added to a final concentration of 5 ng/mL, and the cells were incubated an additional 6 hours at 37° C. Then media was removed, and the plates were washed once with D-PBS (Gibco/BRL) and treated with primary antibodies (Becton Dickinson, City), 100 μL/well in D-PBS/2% BSA (Sigma)/0.01% azide. Primary antibodies at an initial concentration of 1 mg/mL were used at the following dilutions: anti-ELAM-1, 1:2000, anti-ICAM-1, 1:2000 and anti-VACM-1, 1:3000. Plates were stored overnight at 4° C., washed 3 times with D-PBS, and treated with secondary antibody (Jackson Labs), 100 μL/well 1:8000 dilution HRP-conjugated donkey anti-mouse IgG(H+L) in D-PBS/2%BSA. Plates were incubated a minimum of 1 hour at room temperature, washed 3 times with D-PBS and treated with 100 μL of orhto-phenylene diamine-2 HCl reagent per well. Plates were developed approximately 15 minutes and neutralized with 100 μL/well 1N sulfuric acid. Absorbance was read at 490 nm.

[2] = system: VCAM-1; test: CAM ELISA: VCAM-1 expression on TNF-stimulated HUVECs
Method: as §1

[3] = system: E-Selectin; test: CAM ELISA: E-selectin expression on TNF-stimulated HUVECs
Method: as §1

| Compound | inhibition at 1 µM [1] | inhibition at 1 µM [2] | inhibition at 1 µM [3] | CAM ELISA % Inhibition at 1 μM ICAM-1 [1] | CAM ELISA % Inhibition at 1 μM VCAM-1 [2] | CAM ELISA % Inhibition at 1 μM E-Selectin [3] |
| --- | --- | --- | --- | --- | --- | --- |
| NC(=O)c1cc2c(Oc3ccc(-n4ccnc4)cc3)cncc2s1 [Example 217, 4-[4-(1H-Imidazol-1-yl)phenoxy]thieno[2,3-c]pyridine-2-carboxamide] | 63% | 42% | 64% |  |  |  |
| CNC(=O)c1cc2c(Oc3ccc(-n4cccn4)cc3)cncc2s1 [Example 218, N-Methyl-4-[4-(1H-pyrazol-1-yl)phenoxy]thieno[2,3-c]pyridine-2-carboxamide] | 64% | 51% | 66% |  |  |  |
| CNC(=O)c1cc2c(Oc3ccc(-n4cncn4)cc3)cncc2s1 [Example 219, N-Methyl-4-[4-(1H-1,2,4-triazol-1-yl)phenoxy]thieno[2,3-c]pyridine-2-carboxamide] | 68% | 50% | 62% |  |  |  |
| CNC(=O)c1cc2c(Oc3ccc(-c4noc(C(F)(F)F)n4)cc3)cncc2s1 [Example 220, N-Methyl-4-[4-[5-(trifluoromethyl)-1,2,4-oxadiazol-3-yl]phenoxy]thieno[2,3-c]pyridine-2-carboxamide] | 51% | 32% | 60% |  |  |  |
| CNC(=O)c1cc2c(Oc3ccc(-c4cccs4)cc3)cncc2s1 [Example 222, N-Methyl-4-[4-(2-thienyl)phenoxy]thieno[2,3-c]pyridine-2-carboxamide] | 42% | 44% | 40% |  |  |  |
| CNC(=O)c1cc2c(Oc3ccc(-c4ccccc4)cc3)cncc2s1 [Example 223] |  |  |  | 36% | 36% | 34% |
| CNC(=O)c1cc2c(Oc3ccc(-c4cncn4C)cc3)cncc2s1 [Example 224, N-Methyl-4-[4-(1-methyl-1H-imidazol-5-yl)phenoxy]thieno[2,3-c]pyridine-2-carboxamide] | 55% | 41% | 61% |  |  |  |
| CNC(=O)c1cc2c(Oc3ccc(C4(CO)CC4)cc3)cncc2s1 [Example 225, 4-{4-[1-(Hydroxymethyl)cyclopropyl]phenoxy}-N-methylthieno[2,3-c]pyridine-2-carboxamide] | 78% | 60% | 75% |  |  |  |
| CCOCCOCCOCC1(c2ccc(Oc3cncc4sc(C(=O)NC)cc34)cc2)CC1 [Example 226] |  |  |  | 74% | 56% | 77% |
| CNC(=O)c1cc2c(Oc3ccc(OC(F)(F)F)cc3)cncc2s1 [Example 227, N-Methyl-4-[4-(trifluoromethoxy)phenoxy]thieno[2,3-c]pyridine-2-carboxamide] | 62% | 44% | 61% |  |  |  |
| CNC(=O)c1cc2c(Oc3ccc(C(F)(F)CO)cc3)cncc2s1 [Example 229] |  |  |  | 55% | 46% | 54% |
| CCOCCOCCOCC(F)(F)c1ccc(Oc2cncc3sc(C(=O)NC)cc23)cc1 [Example 230, 4-(4-[2-[2-(2-Ethoxyethoxy)ethoxy]-1,1-difluoroethyl]phenoxy)-N-methylthieno[2,3-c]pyridine-2-carboxamide] | 53% | 45% | 56% |  |  |  |
| CC(C)OC(=O)OC[n+]1cc(Oc2ccc(Cl)cc2)c2cc(C(N)=O)sc2c1 [Example 233, 2-(Aminocarbonyl)-4-(4-chlorophenoxy)-6-{[(isopropoxycarbonyl)oxy]methyl}thieno[2,3-c]pyridin-6-ium] |  |  |  | 79% | 62% | 74% |
| NC(=O)c1cc2c(OCc3ccccc3)cncc2s1 [Example 236, 4-(Benzyloxy)thieno[2,3-c]pyljdine-2-carboxamide] |  |  |  | 59% | 33% | 59% |
| NC(=O)c1cc2c(C(=O)Nc3ccc(Cl)cc3)cncc2s1 [Example 238, N-4-(4-Chlorophenyl)thieno[2,3-c]pyridine-2,4-dicarboxamide] |  |  |  | 47% | 17% | 46% |
| OCC(O)c1cc2c(Oc3ccc(Cl)cc3)cncc2s1 (stereo not drawn) [Example 254, 1-[4-(4-Chlorophenoxy)thieno[2,3-c]pyridin-2-yl]-1,2-ethanediol] | 28% | 24% | 24% |  |  |  |

| Compound | inhibition at 1 µM [1] | inhibition at 1 µM [2] | inhibition at 1 µM [3] | CAM ELISA % Inhibition at 1 μM ICAM-1 [1] | CAM ELISA % Inhibition at 1 μM VCAM-1 [2] | CAM ELISA % Inhibition at 1 μM E-Selectin [3] |
| --- | --- | --- | --- | --- | --- | --- |
| OCC(O)c1cc2c(Oc3ccc(Br)cc3)cncc2s1 (stereo not drawn) [Example 255, 1-[4-(4-Bromophenoxy)thieno[2,3-c]pjridin-2-yl]-1,2-ethanediol] |  |  |  | 65% | 19% | 67% |
| CNC(=O)C(O)C(O)c1cc2c(Oc3ccc(Br)cc3)cncc2s1 (stereo not drawn) [Example 261, Methyl 3-[4-(4-Bromophenoxy)thieno[2,3-c]pyridin-2-yl]-2,3-dihydroxypropanamide] | 16% | 0% | 20% |  |  |  |
| Nc1nnc(-c2cc3c(Oc4ccc(Cl)cc4)cncc3s2)o1 [Example 275, 5-[4-(4-Chlorophenoxy)thieno[2,3-c]pyridin-2-yl]-1,3,4-oxadiazol-2-amine] | 72% | 64% | 73% |  |  |  |
| Nc1nnc(-c2cc3c(Oc4ccc(Br)cc4)cncc3s2)o1 [Example 276, 5-[4-(4-Bromophenoxy)thieno[2,3-c]pyridin-2-yl]-1,3,4-oxadiazol-2-ylamine] | 61% | 52% | 66% |  |  |  |
| Nc1nnc(-c2cc3c(Oc4ccc(C(F)(F)F)cc4)cncc3s2)o1 [Example 280, 5-{4-[4-(Trifluoromethyl)phenoxy]thieno[2,3-c]pyridin-2-yl}-1,3,4-oxadiazol-2-amine] | 77% | 69% | 73% |  |  |  |
| CSc1nnc(-c2cc3c(Oc4ccc(Cl)cc4)cncc3s2)o1 [Example 281] |  |  |  | 25% | 20% | 18% |
| Clc1ccc(Oc2cncc3sc(-c4nnn[nH]4)cc23)cc1 [Example 282A, 4-(4-Chlorophenoxy)-2-(1,2,3,4-tetrazol-5-yl)thieno[2,3-c]pyridine] | 15% | 5% | 8% |  |  |  |
| Clc1ccc(Oc2cncc3sc(-c4ncon4)cc23)cc1 [Example 287, 4-(4-Chlorophenoxy)-2-(1,2,4-oxadiazol-3-yl)thieno[2,3-c]pyridine] | 49% | 27% | 49% |  |  |  |
| Nc1nc(-c2cc3c(Oc4ccc(Cl)cc4)cncc3s2)no1 [Example 289, 3-[4-(4-Chlorophenoxy)thieno[2,3-c]pyridin-2-yl]-1,2,4-oxadiazol-5-amine] | 62% | 52% | 64% |  |  |  |
| Cc1nnc(-c2cc3c(Oc4ccc(C(F)(F)F)cc4)cncc3s2)o1 [Example 290, 2-(5-Methyl-1,3,4-oxadiazol-2-yl)-4-[4-(trifluoromethyl)phenoxy]thieno[2,3-c]pyridine] | 53% | 48% | 42% |  |  |  |
| CC(C)(C)OC(=O)Nc1csc(-c2cc3c(Oc4ccc(Cl)cc4)cncc3s2)n1 [Example 294, tert-Butyl 2-[4-(4-Chlorophenoxy)thieno[2,3-c]pyridin-2-yl]-1,3-thiazol-4-ylcarbamate] | 45% | 24% | 46% |  |  |  |
| NC(=O)c1sc2cncc(Cl)c2c1N [Example 301, 3-Amino-4-chlorothieno[2,3-c]pyridine-2-carboxamide] | 48% | 34% | 44% |  |  |  |
| CNC(=O)c1sc2cncc(Oc3ccc(Cl)cc3)c2c1C [Example 303, 4-(4-Chlorophenoxy)-N, 3-dimethylthieno[2,3-c]pyridine-2-carboxamide] | 66% | 33% | 65% |  |  |  |
| NC(=O)c1cc2c(Oc3ccc(Cl)cc3)cnc(Cl)c2s1 [Example 311, 7-Chloro-4-(4-chlorophenoxy)thieno[2,3-c]pyridine-2-carboxamide] | 77% | 36% | 72% |  |  |  |
| CNC(=O)c1cc2c(Oc3ccc(Cl)cc3)cnc(Cl)c2s1 [Example 312, 7-Chloro-4-(4-chlorophenoxy)-N-methylthieno[2,3-c]pyridine-2-carboxamide] | 76% | 42% | 64% |  |  |  |
| NC(=O)c1cc2c(Oc3ccc(Br)cc3)cnc(Cl)c2s1 [Example 316, 4-(4-Bromophenoxy)-7-chlorothieno[2,3-c]pyridine-2-carboxamide] | 68% | 42% | 76% |  |  |  |
